Data published in ChEMBL document CHEMBL1137084, “Synthesis of a 5-methylindolyl-containing macrocycle that displays ultrapotent Grb2 SH2 domain-binding affinity” (J Med Chem, 2004).

How the values were obtained:
MDA-MB-453 = assay: Inhibition of growth-factor-stimulated MDA-MB-453 breast cancer cell proliferation; format: functional, cell-based; conditions: Homo sapiens
[1] = target: T1, Growth factor receptor-bound protein 2 (Homo sapiens, UniProt P62993); assay: In vitro binding affinity for Grb2 SH2 domain
T1 sequence (P62993 whole entry, the tested form may be a part): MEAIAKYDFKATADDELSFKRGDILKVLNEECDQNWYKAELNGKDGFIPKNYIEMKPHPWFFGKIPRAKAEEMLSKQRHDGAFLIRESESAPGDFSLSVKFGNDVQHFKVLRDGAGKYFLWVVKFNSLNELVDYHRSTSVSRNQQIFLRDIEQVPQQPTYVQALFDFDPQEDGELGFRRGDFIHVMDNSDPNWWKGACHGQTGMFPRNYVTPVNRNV

[2] = target: T1, Growth factor receptor-bound protein 2; assay: Inhibition of Grb2 SH2 domain binding to erbB-2
[3] = target: T1, Growth factor receptor-bound protein 2; assay: In vitro binding affinity in whole cells for Grb2 SH2 domain; format: cell-based
[4] = target: T1, Growth factor receptor-bound protein 2; assay: In vitro binding affinity in extracellular ELISA-based assay for Grb2 SH2 domain

| SMILES | IC50 (MDA-MB-453) | Kd [1] | IC50 [2] | IC50 [3] | IC50 [4] |
| --- | --- | --- | --- | --- | --- |
| Cc1ccc2c(ccn2C[C@@H]2C/C=C/[C@H](c3ccc(CP(=O)(O)O)cc3)[C@H](CC(=O)O)C(=O)NC3(CCCCC3)C(=O)N[C@@H](CC(N)=O)C(=O)NC2)c1 [listing 1 of 2 here] | 600 nM | 0.093 nM | ≤ 10 nM |  |  |
| Cc1ccc2c(ccn2C[C@@H]2C/C=C/[C@H](c3ccc(CP(=O)(O)O)cc3)[C@H](CC(=O)O)C(=O)NC3(CCCCC3)C(=O)N[C@@H](CC(N)=O)C(=O)NC2)c1 [listing 2 of 2 here] |  | 0.075 nM |  |  |  |
| NC(=O)C[C@@H]1NC(=O)C2(CCCCC2)NC(=O)C[C@@H](c2ccc(CP(=O)(O)O)cc2)/C=C/C[C@@H](Cc2cccc3ccccc23)CNC1=O |  |  |  | ≥ 10000 nM |  |
| NC(=O)C[C@@H]1NC(=O)C2(CCCCC2)NC(=O)[C@@H](CC(=O)O)[C@@H](c2ccc(CP(=O)(O)O)cc2)/C=C/C[C@@H](Cc2cccc3ccccc23)CNC1=O |  |  |  | ≤ 1000 nM | 2 nM |
